For 38 compounds, EC50 and AC50 results are on record in ChEMBL document CHEMBL1201862, “PubChem BioAssay data set” (2004).

SMILES strings stand for the structures. Values joined by “and” are separate entries in the source; they are usually repeats but may differ in a detail not shown here. Equal values may be shown once. Active and inactive are the calls of the source.

Targets include Cytochrome P450 2D6 (Homo sapiens, UniProt P10635); Cytochrome P450 2C9 (Homo sapiens, UniProt P11712); Cytochrome P450 3A4 (Homo sapiens, UniProt P08684).
The target of test [1] is T1, RNA-binding protein pos-1 (Caenorhabditis elegans, UniProt G5EF15).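 Further: purified POS-1 fused to maltose binding protein made in E. coli; potency of compounds blocking POS-1 binding to fluorescent RNA.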
T1 sequence (G5EF15 whole entry): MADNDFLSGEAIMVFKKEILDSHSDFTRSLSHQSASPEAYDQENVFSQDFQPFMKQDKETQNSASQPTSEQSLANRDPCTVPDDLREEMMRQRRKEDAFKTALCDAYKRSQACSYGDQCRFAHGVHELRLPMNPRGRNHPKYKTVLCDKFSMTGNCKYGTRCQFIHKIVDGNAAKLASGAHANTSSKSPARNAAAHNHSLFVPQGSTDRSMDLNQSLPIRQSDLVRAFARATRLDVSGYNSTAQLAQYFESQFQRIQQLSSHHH
In words: disruptors of C. elegans POS-1 RNA interaction – biochemical, fluorescence polarization, dose response (AID 1964). (In general: Fluorescence polarisation rises when a labelled molecule tumbles more slowly, as on binding a larger partner.)

Test [2] addresses T2, Zinc finger protein mex-5 (Caenorhabditis elegans, UniProt Q9XUB2).
T2 sequence (Q9XUB2 whole entry): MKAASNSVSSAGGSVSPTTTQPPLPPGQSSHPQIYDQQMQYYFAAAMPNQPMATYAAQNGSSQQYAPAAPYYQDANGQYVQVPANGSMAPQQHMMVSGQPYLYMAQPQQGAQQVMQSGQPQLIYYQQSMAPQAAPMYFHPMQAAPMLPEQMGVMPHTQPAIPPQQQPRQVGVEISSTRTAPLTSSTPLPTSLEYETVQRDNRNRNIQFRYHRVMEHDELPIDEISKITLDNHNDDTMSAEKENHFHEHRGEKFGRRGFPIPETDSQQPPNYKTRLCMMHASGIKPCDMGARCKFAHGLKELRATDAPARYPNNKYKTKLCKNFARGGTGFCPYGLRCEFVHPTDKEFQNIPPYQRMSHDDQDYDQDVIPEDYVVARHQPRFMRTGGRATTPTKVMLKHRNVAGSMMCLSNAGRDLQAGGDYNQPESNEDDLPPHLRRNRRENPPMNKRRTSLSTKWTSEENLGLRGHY
In words: potency of MEX-5 RNA-binding blockers – biochemical, C. elegans, fluorescence polarization, dose response (AID 1960).

The next test has as its target Cytochrome P450 2C19 (Homo sapiens, UniProt P33261). In words: Cytochrome panel assay with activity outcomes. Panel member name: p450-cyp2c19 Compounds with AC50 equal or less than 10 uM are considered active. The format is functional. The following applies: read-out: AC50.
The next test addresses T3, Cytochrome P450 1A2 (Homo sapiens, UniProt P05177).
T3 sequence (P05177 whole entry): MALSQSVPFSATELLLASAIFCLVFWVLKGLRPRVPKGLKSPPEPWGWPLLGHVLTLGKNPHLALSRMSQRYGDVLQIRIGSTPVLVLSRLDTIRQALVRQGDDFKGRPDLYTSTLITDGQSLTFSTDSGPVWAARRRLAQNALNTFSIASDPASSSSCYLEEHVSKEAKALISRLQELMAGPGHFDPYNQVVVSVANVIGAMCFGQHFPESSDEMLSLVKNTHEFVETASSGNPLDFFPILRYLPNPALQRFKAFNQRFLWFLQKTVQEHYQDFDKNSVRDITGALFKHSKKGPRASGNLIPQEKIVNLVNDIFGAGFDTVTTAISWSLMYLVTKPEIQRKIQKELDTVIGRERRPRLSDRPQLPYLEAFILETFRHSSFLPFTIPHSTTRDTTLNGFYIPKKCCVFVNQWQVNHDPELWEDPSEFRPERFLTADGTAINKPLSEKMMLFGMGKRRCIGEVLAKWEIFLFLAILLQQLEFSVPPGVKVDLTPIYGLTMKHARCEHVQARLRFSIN

Test [3] has as its target T4, Heat shock factor protein 1 (Mus musculus, UniProt P38532).
T4 sequence (P38532 whole entry): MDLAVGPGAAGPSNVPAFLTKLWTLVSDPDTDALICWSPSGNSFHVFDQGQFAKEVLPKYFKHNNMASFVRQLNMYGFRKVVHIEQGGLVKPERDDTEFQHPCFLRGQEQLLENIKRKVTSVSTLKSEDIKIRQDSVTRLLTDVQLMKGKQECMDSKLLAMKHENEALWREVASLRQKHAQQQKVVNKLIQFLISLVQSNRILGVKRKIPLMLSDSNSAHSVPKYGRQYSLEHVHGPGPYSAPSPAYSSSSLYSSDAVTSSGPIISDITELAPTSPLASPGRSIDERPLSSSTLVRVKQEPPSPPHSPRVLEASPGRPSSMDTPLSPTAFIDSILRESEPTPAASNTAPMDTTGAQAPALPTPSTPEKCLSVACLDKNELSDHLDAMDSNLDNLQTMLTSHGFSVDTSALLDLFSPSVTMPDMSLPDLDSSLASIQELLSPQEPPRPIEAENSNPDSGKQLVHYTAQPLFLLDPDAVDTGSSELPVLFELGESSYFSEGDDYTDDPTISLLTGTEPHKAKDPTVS
In words: enhancement of HSF1-driven luciferase signal – cell-based, NIH3T3, luminescence, dose retest, confirmation (AID 435004).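 Further: stress induced by proteasome inhibitor MG132 added 30 min after compound; luciferase reporter driven by HSF1 response element in NIH3T3 cells; actives raise luminescence as potentiators of the MG132 stress response.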 The class given is functional.

The nature of test [4]: luciferase reporter signal suppression in cells – H4 neuroglioma cells, luminescence, dose response (AID 1990). The format is functional, cell-based. For orientation: Reporter assays use an easily measured gene product as a stand-in for the process of interest.
Test [5] is described as follows: alpha-synuclein stem-loop luciferase translation blockers – H4 neuroglioma cells, luminescence, confirmation (AID 1988). The class given is functional, cell-based.

Cytochrome P450 2C9, sequence (P11712 whole entry, the tested form may be a part): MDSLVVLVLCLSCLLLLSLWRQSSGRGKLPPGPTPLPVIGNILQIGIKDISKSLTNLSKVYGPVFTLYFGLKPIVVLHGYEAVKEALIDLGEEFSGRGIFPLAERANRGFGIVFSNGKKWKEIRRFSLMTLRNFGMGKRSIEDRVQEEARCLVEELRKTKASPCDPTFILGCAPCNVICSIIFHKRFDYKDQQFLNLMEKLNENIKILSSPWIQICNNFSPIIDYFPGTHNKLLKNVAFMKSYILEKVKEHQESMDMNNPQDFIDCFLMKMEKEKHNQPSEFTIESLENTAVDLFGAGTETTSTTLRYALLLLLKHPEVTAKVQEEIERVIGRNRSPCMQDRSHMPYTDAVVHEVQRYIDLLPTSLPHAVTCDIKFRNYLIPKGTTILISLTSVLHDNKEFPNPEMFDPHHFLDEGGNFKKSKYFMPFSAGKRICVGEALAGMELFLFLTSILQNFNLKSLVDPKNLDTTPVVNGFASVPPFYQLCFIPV
Cytochrome P450 3A4, sequence (P08684 whole entry, the tested form may be a part): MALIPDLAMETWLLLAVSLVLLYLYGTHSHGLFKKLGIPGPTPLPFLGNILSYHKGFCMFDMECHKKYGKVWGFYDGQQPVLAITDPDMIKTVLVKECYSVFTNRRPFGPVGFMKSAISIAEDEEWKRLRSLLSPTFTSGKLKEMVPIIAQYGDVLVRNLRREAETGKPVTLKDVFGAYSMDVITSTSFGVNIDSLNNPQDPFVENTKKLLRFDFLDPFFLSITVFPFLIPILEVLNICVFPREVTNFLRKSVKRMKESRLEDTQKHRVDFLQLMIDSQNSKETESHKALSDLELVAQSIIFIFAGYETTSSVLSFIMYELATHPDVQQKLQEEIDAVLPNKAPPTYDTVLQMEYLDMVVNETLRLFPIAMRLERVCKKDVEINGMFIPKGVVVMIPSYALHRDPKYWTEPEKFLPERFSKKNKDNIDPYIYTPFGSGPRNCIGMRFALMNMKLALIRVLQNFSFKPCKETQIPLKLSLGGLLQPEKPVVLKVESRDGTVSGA
Cytochrome P450 2D6, sequence (P10635 whole entry, the tested form may be a part): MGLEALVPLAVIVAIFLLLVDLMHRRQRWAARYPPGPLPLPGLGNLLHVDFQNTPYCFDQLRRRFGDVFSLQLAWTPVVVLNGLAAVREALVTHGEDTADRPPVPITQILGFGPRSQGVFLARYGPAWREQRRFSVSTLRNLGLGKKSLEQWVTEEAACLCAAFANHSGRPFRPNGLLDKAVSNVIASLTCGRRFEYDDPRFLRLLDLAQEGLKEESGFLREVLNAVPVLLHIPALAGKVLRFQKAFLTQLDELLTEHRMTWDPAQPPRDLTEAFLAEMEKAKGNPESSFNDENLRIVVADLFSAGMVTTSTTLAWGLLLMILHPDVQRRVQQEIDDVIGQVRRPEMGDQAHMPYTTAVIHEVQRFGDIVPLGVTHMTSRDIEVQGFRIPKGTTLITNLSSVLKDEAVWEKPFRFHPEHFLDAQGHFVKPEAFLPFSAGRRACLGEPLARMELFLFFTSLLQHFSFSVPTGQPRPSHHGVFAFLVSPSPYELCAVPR
Cytochrome P450 2C19, sequence (P33261 whole entry): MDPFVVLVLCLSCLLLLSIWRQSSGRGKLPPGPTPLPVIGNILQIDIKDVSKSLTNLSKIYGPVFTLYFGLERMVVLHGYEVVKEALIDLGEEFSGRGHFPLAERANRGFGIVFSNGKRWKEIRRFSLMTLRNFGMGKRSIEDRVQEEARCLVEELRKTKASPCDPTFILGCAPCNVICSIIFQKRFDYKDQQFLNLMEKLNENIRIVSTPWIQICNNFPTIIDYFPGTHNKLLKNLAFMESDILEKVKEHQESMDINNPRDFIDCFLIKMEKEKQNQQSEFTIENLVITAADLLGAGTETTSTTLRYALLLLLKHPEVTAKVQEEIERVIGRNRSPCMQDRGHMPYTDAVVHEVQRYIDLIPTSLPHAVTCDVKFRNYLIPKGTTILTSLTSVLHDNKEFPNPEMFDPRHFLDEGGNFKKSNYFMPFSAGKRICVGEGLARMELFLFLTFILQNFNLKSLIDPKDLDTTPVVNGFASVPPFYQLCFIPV

On to `COc1ccc(C=C2C(=O)OC(C)(C)OC2=O)cc1OC`, for which the EC50 in [1] and in test [2] was > 300 µM (not active) each time. For the compound `Cc1c(N/C=C2\C(=O)NC(=O)N(Cc3ccco3)C2=O)c(=O)n(-c2ccccc2)n1C`, the 50% effective concentration (EC50) in [1] and in [2] was > 300 µM (not active) each time. As to `CCCCC1=CC2=C(c3ccco3)C(=O)C(C)(OC(=O)c3ccc(OC)cc3)C(=O)C2=CN1CCN1CCOCC1` (stereo not drawn), the EC50 (commonly the concentration at which the effect is half-maximal) in test [1] is 95.7 µM (active); in test [2], 42.2 µM (active). On to `COc1ccc2c(c1)C1C=CCC1C(c1cc3c(cc1Br)OCO3)N2` (stereo not drawn), for which the EC50 in test [1] is > 300 µM (not active); in [2], 47.9 µM (active). In the case of `CCN(CCCl)Cc1ccccc1Br`, the AC50 (commonly the concentration giving half of the maximal activity seen) on Cytochrome P450 2C19 is 39.8 µM (inconclusive); at Cytochrome P450 2D6 it was 12.6 µM (inconclusive); at Cytochrome P450 1A2 it was 15.8 µM (inconclusive). Regarding `COc1ccc(NC(=O)CSc2nc(C)c3c(c2C#N)CCCC3)cc1`, the AC50 at Cytochrome P450 2D6 was 2.24 µM (inconclusive); on Cytochrome P450 2C9, 8.91 µM (inconclusive). With `CCC(C)C(NC(=O)OCc1ccccc1)C(=O)OCN1C(=O)c2ccccc2C1=O` (stereo not drawn), the AC50 at Cytochrome P450 2D6 was 0.631 µM (inconclusive). Same read-out and setting: the same measure for `C[N+]1(C)CCc2cc3c(cc2[C@@H]1[C@@H]1OC(=O)c2c1ccc1c2OCO1)OCO3`: 31.6 µM (inconclusive). With `Cn1ncc2c(NNC(=O)Cc3ccccc3)ncnc21`, the values for the EC50 in test [1] and in [2] were > 300 µM (not active) and 10.5 µM (active), respectively.

Consider `CCC1(C)CC(CCNS(=O)(=O)c2ccc(C)cc2)(c2ccc(C)cc2)CCO1` (stereo not drawn), for which, at Cytochrome P450 2D6, the AC50 is 28.2 µM (inconclusive). Still for that read-out and setting: then `Cc1noc(C)c1-c1ccc2ncnc(N(C)Cc3ccco3)c2c1`, with 20 µM (inconclusive).

In the case of `O=C1NCC2=C1C(c1ccc(Br)cc1)Nc1ccccc1N2` (stereo not drawn), the EC50 in test [3] is > 260 µM (inactive). Moreover, the figures for the AC50 on Cytochrome P450 2D6 and on Cytochrome P450 3A4 were 2.24 µM (inconclusive) and 25.1 µM (inconclusive), respectively. Regarding `O=C(CN1CCOCC1)Nc1cccc(Cl)c1Cl`, the EC50 in test [4] and in test [5] was > 120 µM (not active) throughout. `O=c1cnc2cnc(N3CCOCC3)nc2n1Cc1cccs1`: the AC50 was 31.6 µM (inconclusive) on Cytochrome P450 2C19, 25.1 µM (inconclusive) at Cytochrome P450 2D6, 15.8 µM (inconclusive) on Cytochrome P450 3A4 and 31.6 µM (inconclusive) at Cytochrome P450 2C9. As for `C=CCn1cc(C=C2C(=O)NC(=O)NC2=O)c2ccccc21`, the 50% effective concentration (EC50) is > 300 µM (not active) in test [1] and 112 µM (inconclusive) in test [2]. Turning to `O/C(=C(\C([S-])=NCc1ccco1)[n+]1ccccc1)c1ccccc1Br`, the EC50 in test [1] was > 300 µM (not active); in test [2], 58.4 µM (active). Regarding `CSC(=Nc1cccc(Cl)c1C)NS(=O)(=O)c1cccs1`, the EC50 in test [1] and in test [2] was > 300 µM (not active) each time. `COc1ccc(OC)c(S(=O)(=O)NC2CCN(Cc3ccccc3)CC2)c1`: the EC50 in test [1] and in [2] was > 300 µM (not active) throughout. For the compound `CCCC[C@@H]1C[C@H]1C(NC(=O)c1ccco1)c1ccc(C(=O)OC)cc1` (stereo partly drawn), the AC50 on Cytochrome P450 2D6 was 25.1 µM (inconclusive). Same read-out and setting: then `C=CCNC(=O)/C(=C\C=C\c1ccccc1)NC(=O)c1ccc(OCCCC)cc1`, with 4.47 µM (inconclusive). Take `CC1C2(C)OC(=N)C(C#N)(C(C)O2)C1(C#N)C#N` (stereo not drawn): the EC50 was > 300 µM (not active) in test [1] and 16 µM (active) in test [2]. The matching figures for `COc1cccc(NC(=O)c2ccccc2Br)c1`: > 300 µM (not active) and > 300 µM (not active). Take `COc1ccccc1-c1cncnc1NCc1cccnc1`: the AC50 at Cytochrome P450 2D6 was 39.8 µM (inconclusive). In the case of `O=C(C1CCC(=O)N1Cc1ccccc1Cl)N1CCN(c2ccc(F)cc2)CC1` (stereo not drawn), the AC50 was 20 µM (inconclusive) at Cytochrome P450 2C19; 15.8 µM (inconclusive) on Cytochrome P450 2D6; 2.51 µM (inconclusive) on Cytochrome P450 1A2; 12.6 µM (inconclusive) at Cytochrome P450 3A4; 25.1 µM (inconclusive) on Cytochrome P450 2C9. Consider `Cc1cc(/C=C2\C(=O)NC(=O)N(c3ccc(F)cc3)C2=O)c(C)n1-c1ccc(C(=O)O)cc1`, for which the EC50 in [1] and in test [2] was > 300 µM (not active) in each case.

Regarding `CCn1c(SCc2cccc(C)c2)nnc1-c1ccccc1`, the AC50 was 15.8 µM (inconclusive) at Cytochrome P450 2D6, 3.16 µM (inconclusive) at Cytochrome P450 3A4 and 35.5 µM (inconclusive) at Cytochrome P450 2C9. As for `O=C(c1ccco1)N1CCC2(CC1)CCN(c1ccccc1)CC2`, the AC50 at Cytochrome P450 2D6 is 25.1 µM (inconclusive). Regarding `CCOC(=O)c1c(-n2c(C)cc(/C=C3/C(=O)NC(=O)N(CC)C3=O)c2C)sc2c1CCCC2`, the 50% effective concentration (EC50) in [1] is 25.1 µM (active); in test [2], 29.8 µM (active).

For `CC(C)(C)c1ccc(OCc2ccc(C(=O)Nc3cccnc3)o2)cc1`, the EC50 in test [1] and in [2] was > 300 µM (not active) throughout. In the case of `O=C(NCC1CCCO1)c1ccc(CS(=O)(=O)Cc2ccc(F)cc2)o1` (stereo not drawn), the EC50 in test [1] and in test [2] was > 300 µM (not active) in each case. On Cytochrome P450 2C19, the AC50 is 39.8 µM (inconclusive). As for `CC(=O)Nc1c(S(=O)(=O)c2ccccc2)c2nc3ccccc3nc2n1Cc1ccccc1`, the half-maximal activity concentration (AC50) on Cytochrome P450 2D6 is 25.1 µM (inconclusive). With `CN(Cc1ccco1)c1ncncc1-c1ccccc1C(F)(F)F`, the AC50 at Cytochrome P450 2D6 is 20 µM (inconclusive); on Cytochrome P450 1A2 it was 12.6 µM (inconclusive). For the compound `O=C(c1cccc(F)c1)N1CCC[C@@]2(CCN(C(c3ccccc3)c3ccccc3)C2)C1`, at Cytochrome P450 2D6, the half-maximal activity concentration (AC50) is 12.6 µM (inconclusive). As to `C#CCCCCCCCCCCCCCCCC(=O)O`, the figures for the AC50 on Cytochrome P450 2C19 and at Cytochrome P450 2D6 were 25.1 µM (inconclusive) and 20 µM (inconclusive), respectively. `C[N+]1(NCC[N@@+]2(C)CCc3ccccc3C2)CCCCC1`: the AC50 on Cytochrome P450 2D6 is 1.58 µM (inconclusive).

For `C[C@H](NC(C)(C)C)C(=O)c1cccc(Cl)c1`, the AC50 is 15.8 µM (inconclusive) and 3.16 µM (inconclusive) on Cytochrome P450 2C19; 31.6 µM (inconclusive) and 6.31 µM (inconclusive) at Cytochrome P450 2D6. On to `Cc1cccc(C)c1NC(=O)NN=C1CCCCC1`, for which the EC50 in [1] and in [2] was > 300 µM (not active) in each case. Consider `Cc1ccc(S(=O)(=O)N[C@@H](CCCCN)C(=O)CCl)cc1`, for which the AC50 at Cytochrome P450 2D6 is 25.1 µM (inconclusive).
